The assay relates to L1210 leukemia ip in BDF1 mice, survival T/C. The assay can be described thus: NCI In Vivo Anticancer Drug Screen. Data for tumor model L1210 Leukemia (intraperitoneal) in B6D2F1 (BDF1) mice. The settings on record: endpoint: mean survival time, higher = longer survival. In outline: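 Transplanted-tumor mice were given test agent; controls received vehicle only. Survival readings from the two groups were divided (treated over control).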

Setting [1] is: dose: 100.0 mg/kg/injection, schedule: Q01DX001 (ip), vehicle: saline.
Where [2] appears, read: dose: 200.0 mg/kg/injection, schedule: Q01DX001 (ip), vehicle: saline.
[3] abbreviates: dose: 400.0 mg/kg/injection, schedule: Q01DX001 (ip), vehicle: saline.
Setting [4] is: dose: 100.0 mg/kg/injection, schedule: Q04DX003 (ip), vehicle: Klucel (hydroxypropylcellulose) (HPC).
Setting [5] is: dose: 200.0 mg/kg/injection, schedule: Q04DX003 (ip), vehicle: Klucel (hydroxypropylcellulose) (HPC).
Where [6] appears, read: dose: 50.0 mg/kg/injection, schedule: Q04DX003 (ip), vehicle: other.
[7] abbreviates: dose: 100.0 mg/kg/injection, schedule: Q01DX001 (ip), vehicle: carboxymethylcellulose (CMC).
[8] abbreviates: dose: 100.0 mg/kg/injection, schedule: Q04DX003 (ip), vehicle: saline with Tween-80.
The mark [9] stands for this setting: dose: 200.0 mg/kg/injection, schedule: Q01DX001 (ip), vehicle: carboxymethylcellulose (CMC).
Where [10] appears, read: dose: 400.0 mg/kg/injection, schedule: Q01DX001 (ip), vehicle: carboxymethylcellulose (CMC).
Where [11] appears, read: dose: 100.0 mg/kg/injection, schedule: Q04DX002 (ip), vehicle: Klucel (hydroxypropylcellulose) (HPC).
[12] abbreviates: dose: 200.0 mg/kg/injection, schedule: Q04DX002 (ip), vehicle: Klucel (hydroxypropylcellulose) (HPC).
[13] abbreviates: dose: 400.0 mg/kg/injection, schedule: Q04DX002 (ip), vehicle: Klucel (hydroxypropylcellulose) (HPC).
Where [14] appears, read: dose: 50.0 mg/kg/injection, schedule: Q01DX009 (ip), vehicle: saline with Tween-80.
The mark [15] stands for this setting: dose: 100.0 mg/kg/injection, schedule: Q01DX009 (ip), vehicle: saline with Tween-80.

Several values for one entry are separate records, joined by “and”; a condition that tells them apart may be missing. Equal entries are not always repeated. Inconclusive results and toxic doses are left out.

`Nc1nc(N)c(N=Nc2ccc(S(=O)(=O)c3ccc(N=Nc4c(N)nc(N)[nH]c4=O)cc3)cc2)c(=O)[nH]1`: the T/C reads like this: under setting [1], 91 % of control; under setting [2], 96 % of control; under setting [3], 91 % of control.
Consider `CCOC(=O)c1ccc(=O)[nH]c1.[Ag]`, for which the T/C is, setting by setting: (dose: 6.25 mg/kg/injection, schedule: Q01DX009 (ip), vehicle: Klucel (hydroxypropylcellulose) (HPC)) 94 % of control; (dose: 12.5 mg/kg/injection, schedule: Q01DX009 (ip), vehicle: Klucel (hydroxypropylcellulose) (HPC)) 90 % of control; (dose: 25.0 mg/kg/injection, schedule: Q01DX009 (ip), vehicle: Klucel (hydroxypropylcellulose) (HPC)) 90 % of control; (dose: 50.0 mg/kg/injection, schedule: Q01DX009 (ip), vehicle: Klucel (hydroxypropylcellulose) (HPC)) 86 % of control; under setting [4], 95 % of control; under setting [5], 92 % of control.
For the compound `COc1ccc2c(c1)CCCN2CCC#N`, the T/C is, setting by setting: under setting [6], 106 % of control; (dose: 100.0 mg/kg/injection, schedule: Q04DX003 (ip), vehicle: other) 92 % of control; (dose: 200.0 mg/kg/injection, schedule: Q04DX003 (ip), vehicle: other) 108 % of control; (dose: 400.0 mg/kg/injection, schedule: Q04DX003 (ip), vehicle: other) 99 % of control.
As to `N#C/C(=C1C=C/C(=N/O)C(Cl)=C/1)c1ccc(Cl)cc1`, the T/C (dose: 50.0 mg/kg/injection, schedule: Q01DX001 (ip), vehicle: carboxymethylcellulose (CMC)) is 96 % of control; the T/C under setting [7] was 98 % of control; the T/C under setting [8] was 103 % of control; the T/C under setting [9] is 93 % of control; the T/C (dose: 200.0 mg/kg/injection, schedule: Q04DX003 (ip), vehicle: saline with Tween-80) is 97 % of control; the T/C under setting [10] is 91 % of control. Besides, the T/C (dose: 400.0 mg/kg/injection, schedule: Q04DX003 (ip), vehicle: saline with Tween-80) is 97 % of control.
Regarding `N#CCCS(=O)(=O)CCc1ccccc1`, the T/C is 96 % of control (dose: 75.0 mg/kg/injection, schedule: Q01DX009 (ip), vehicle: Klucel (hydroxypropylcellulose) (HPC)); 96 % of control (dose: 150.0 mg/kg/injection, schedule: Q01DX009 (ip), vehicle: Klucel (hydroxypropylcellulose) (HPC)); 105 % of control (dose: 300.0 mg/kg/injection, schedule: Q01DX009 (ip), vehicle: Klucel (hydroxypropylcellulose) (HPC)).
Turning to `COC1OC(CI)C(OC(=O)c2ccccc2)C(OC(=O)c2ccccc2)C1OC(=O)c1ccccc1` (stereo not drawn), the T/C reads like this: under setting [11], 101 % of control; under setting [12], 93 % of control; under setting [13], 121 % of control.
Regarding `NC(=O)C(O)(c1ccccc1)c1ccccc1`, the T/C (dose: 100.0 mg/kg/injection, schedule: Q01DX001 (ip), vehicle: saline with Tween-80) was 100 % of control; the T/C (dose: 200.0 mg/kg/injection, schedule: Q01DX001 (ip), vehicle: saline with Tween-80) was 97 % of control; the T/C (dose: 400.0 mg/kg/injection, schedule: Q01DX001 (ip), vehicle: saline with Tween-80) is 101 % of control.
Take `CN(C)N=Nc1ccccc1CO`: the T/C is 94 % of control (dose: 1.0 mg/kg/injection, schedule: Q01DX009 (ip), vehicle: other); 103 % of control (dose: 2.0 mg/kg/injection, schedule: Q01DX009 (ip), vehicle: other); 103 % of control (dose: 4.0 mg/kg/injection, schedule: Q01DX009 (ip), vehicle: other); 103 % of control (dose: 8.0 mg/kg/injection, schedule: Q01DX009 (ip), vehicle: other); 105 % of control (dose: 25.0 mg/kg/injection, schedule: Q04DX003 (ip), vehicle: other); 120 % of control under setting [6].
As for `CNC(=O)C(=O)NCCCN1CC1`, the T/C runs as follows: (dose: 12.5 mg/kg/injection, schedule: Q04DX003 (ip), vehicle: Klucel (hydroxypropylcellulose) (HPC)) 114 % of control; (dose: 25.0 mg/kg/injection, schedule: Q04DX003 (ip), vehicle: Klucel (hydroxypropylcellulose) (HPC)) 104 % of control.
As to `CC(C)CCCC(C)C1CCC2C3CC=C4CC(OC(=O)Nc5ccc(S(=O)(=O)c6ccc(F)cc6)cc5)CCC4(C)C3CCC12C` (stereo not drawn), the T/C by setting is: (dose: 100.0 mg/kg/injection, schedule: Q01DX001 (sc), vehicle: steriod suspending solution) 89 % of control; (dose: 200.0 mg/kg/injection, schedule: Q01DX001 (sc), vehicle: steriod suspending solution) 92 % of control; (dose: 400.0 mg/kg/injection, schedule: Q01DX001 (sc), vehicle: steriod suspending solution) 100 % of control.
For `CC/C=C/N1CCCCC1`, the T/C (dose: 25.0 mg/kg/injection, schedule: Q01DX009 (ip), vehicle: saline with Tween-80) is 97 % of control; the T/C under setting [14] is 94 % of control; the T/C under setting [15] is 113 % of control and 91 % of control.
With `S=C(N/N=C/c1ccccn1)N/N=C/c1ccccn1`, the T/C is, setting by setting: (dose: 20.0 mg/kg/injection, schedule: Q01DX009 (ip), vehicle: saline with Tween-80) 105 % of control; (dose: 33.0 mg/kg/injection, schedule: Q01DX009 (ip), vehicle: saline with Tween-80) 100 % of control; under setting [14], 152 % of control; under setting [8], 103 % of control.
On to `CCN(CC)CCN(C(=O)Cc1cccc2ccccc12)c1ccccc1N`, for which the T/C (dose: 19.0 mg/kg/injection, schedule: Q04DX003 (ip), vehicle: acid diluted with saline) is 94 % of control; the T/C (dose: 38.0 mg/kg/injection, schedule: Q04DX003 (ip), vehicle: acid diluted with saline) was 102 % of control; the T/C (dose: 75.0 mg/kg/injection, schedule: Q01DX001 (ip), vehicle: acid diluted with saline) was 105 % of control; the T/C (dose: 75.0 mg/kg/injection, schedule: Q04DX003 (ip), vehicle: acid diluted with saline) is 100 % of control.
Turning to `O=S(=O)(F)c1cc(Cl)ccc1O`, the T/C was 115 % of control under setting [11], 115 % of control under setting [12] and 105 % of control under setting [13].
With `O=C(N/N=C/c1ccco1)c1cccnc1`, the T/C runs as follows: (dose: 100.0 mg/kg/injection, schedule: Q01DX009 (ip), vehicle: Klucel (hydroxypropylcellulose) (HPC)) 97 % of control; (dose: 200.0 mg/kg/injection, schedule: Q01DX009 (ip), vehicle: Klucel (hydroxypropylcellulose) (HPC)) 101 % of control.
For `O=CC1=C(Cl)c2ccccc2SC1`, the T/C (dose: 100.0 mg/kg/injection, schedule: Q01DX001 (ip), vehicle: other) is 93 % of control and the T/C (dose: 200.0 mg/kg/injection, schedule: Q01DX001 (ip), vehicle: other) is 98 % of control.
Take `COC1C(CO)OC(n2cnc3c(=O)[nH]c(N)nc32)C1O` (stereo not drawn): the T/C under setting [7] is 98 % of control, the T/C under setting [9] was 104 % of control and the T/C under setting [10] is 114 % of control.
On to `CC(=O)OC1(N=NC(C)(C)C)C(C)(C)C(=O)C1(C)C`, for which the T/C is, setting by setting: under setting [4], 91 % of control; under setting [5], 86 % of control; (dose: 400.0 mg/kg/injection, schedule: Q04DX003 (ip), vehicle: Klucel (hydroxypropylcellulose) (HPC)) 91 % of control.
`C[C@]12CCCC[C@@H]1CC[C@@H]1[C@@H]2[C@@H](O)C[C@]2(C)[C@@H](O)CC[C@@H]12`: the T/C under setting [14] is 98 % of control; the T/C under setting [15] is 90 % of control; the T/C (dose: 200.0 mg/kg/injection, schedule: Q01DX009 (ip), vehicle: saline with Tween-80) is 95 % of control.
For the compound `CN1CN(c2ccccc2)C2(CCN(Cc3ccccc3)CC2)C1=O`, the T/C was 101 % of control under setting [1], 101 % of control under setting [2] and 103 % of control under setting [3].
As to `CCc1occ(C(=O)OC)c1C1SCCS1`, the T/C is 92 % of control under setting [1], 97 % of control under setting [2] and 91 % of control under setting [3].
`Cc1cccc(N=Cc2ccc(Cl)cc2Cl)c1C`: the T/C reads like this: (dose: 100.0 mg/kg/injection, schedule: Q01DX009 (ip), vehicle: alcohol) 95 % of control; (dose: 100.0 mg/kg/injection, schedule: Q04DX002 (ip), vehicle: saline with Tween-80) 106 % of control; (dose: 200.0 mg/kg/injection, schedule: Q01DX009 (ip), vehicle: alcohol) 87 % of control; (dose: 200.0 mg/kg/injection, schedule: Q04DX002 (ip), vehicle: saline with Tween-80) 102 % of control; (dose: 400.0 mg/kg/injection, schedule: Q04DX002 (ip), vehicle: saline with Tween-80) 98 % of control.

(Values after PubChem BioAssay AID248 (DTP/NCI, 2004).)
